Columns and labels:
[1] = biological target: T1, Recombinant IKKβ (Homo sapiens, UniProt O14920); test: DELFIA IKKβ kinase assay (apparent Ki, Cheng-Prusoff); assay type: biochemical
T1 construct: purchased Millipore, Dundee, UK
T1 sequence (O14920 1-756): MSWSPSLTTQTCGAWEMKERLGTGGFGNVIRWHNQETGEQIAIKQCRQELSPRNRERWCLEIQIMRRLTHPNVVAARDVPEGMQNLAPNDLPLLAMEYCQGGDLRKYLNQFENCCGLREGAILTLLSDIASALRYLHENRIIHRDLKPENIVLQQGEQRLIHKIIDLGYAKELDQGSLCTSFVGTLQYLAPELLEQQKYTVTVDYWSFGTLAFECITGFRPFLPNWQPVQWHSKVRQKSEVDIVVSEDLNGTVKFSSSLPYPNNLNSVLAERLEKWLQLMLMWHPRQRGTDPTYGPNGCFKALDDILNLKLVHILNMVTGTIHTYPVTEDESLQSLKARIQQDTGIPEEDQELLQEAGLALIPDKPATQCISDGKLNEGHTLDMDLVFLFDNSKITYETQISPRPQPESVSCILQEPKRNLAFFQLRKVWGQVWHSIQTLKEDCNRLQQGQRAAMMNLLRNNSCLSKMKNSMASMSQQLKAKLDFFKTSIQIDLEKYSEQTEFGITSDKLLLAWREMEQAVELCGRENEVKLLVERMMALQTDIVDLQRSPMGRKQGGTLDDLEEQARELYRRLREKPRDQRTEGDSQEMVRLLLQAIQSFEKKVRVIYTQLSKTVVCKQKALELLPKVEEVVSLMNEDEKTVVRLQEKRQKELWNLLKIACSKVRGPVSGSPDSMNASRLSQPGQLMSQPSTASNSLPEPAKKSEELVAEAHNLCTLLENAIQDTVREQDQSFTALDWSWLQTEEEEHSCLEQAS
Protocol: (§1) IKKα and IKKβ inhibitory activity was determined using three different assays: a dissociation enhanced ligand fluorescent immunoassay (DELFIA) based on the protocol of HTScan™ IKKβ Kinase Assay (Cell Signaling Technology, USA); an Adapta IKKα assay (performed by Life Technologies); a Z′-LYTE™ IKKβ assay (performed by Life Technologies).
(§2) Recombinant IKKα or IKKβ, 37 nM, (Millipore, Dundee, UK) was incubated with IηB-α (Ser32) (New England Biolabs, Hitchin, UK) biotinylated peptide substrate (0.375 μM) and 40 μM ATP in assay buffer (40 mM Tris-HCl (pH 7.5), 20 mM MgCl2, EDTA 1 mM, DTT 2 mM and BSA 0.01 mg/ml) in a V-well 96-well plate in the presence and absence of test compound. The assay plate was incubated for 60 minutes at 30° C. after which the kinase reaction was quenched by the addition of 50 mM EDTA, pH8. The resulting mixture was transferred to a streptavidin coated 96-well plate (Perkin Elmer, Beaconsfield, UK) and incubated for 1 hour at 30° C. to immobilise the substrate peptide. After three washes with wash buffer (0.01 M phosphate buffered saline (PBS), 0.05% Tween −20, pH 7.4) a primary antibody against the phosphorylated substrate (phospho-IηB-a) (Ser32/36) (5A5) Mouse mAb (New England Biolabs, Hitchin, UK) (1:1000 dilution with 1% bovine serum albumin (BSA) in wash buffer) was added and incubated at 37° C. for 2 h.
(§3) After a further three washes, a secondary europiated antibody (Eu-N1 labelled anti-mouse IgG, (Perkin Elmer, Beaconsfield, UK) diluted 1:500 in 1% BSA/wash buffer) was added and incubated at 30° C. for 30 minutes. After a further five washes, DELFIA enhancement solution—(Perkin Elmer, Beaconsfield UK) was added and allowed to incubate for 10 min at room temperature, protected from light, to facilitate the chemifluorescent detection. The relative fluorescence units (RFU) signal were measured on a Wallac Victor 1420 multilabel counter (Perkin Elmer, Beaconsfield, UK), in time-resolved fluorescence mode. The counter was set at an excitation wavelength of 340 nm with a 400 μs delay before detecting emitted light at 615 nm. The apparent Ki of the […] was calculated for each compound using the Cheng-Prusoff Equation.
(§4) The IKKα and IKKβ figures quoted in non-italicised form are from the DELFIA assay described above.

[2] = biological target: T2, Recombinant IKKα (Homo sapiens, UniProt O15111); test: DELFIA IKKα kinase assay (apparent Ki, Cheng-Prusoff); assay type: biochemical
T2 construct: purchased Millipore, Dundee, UK
T2 sequence (O15111 1-745): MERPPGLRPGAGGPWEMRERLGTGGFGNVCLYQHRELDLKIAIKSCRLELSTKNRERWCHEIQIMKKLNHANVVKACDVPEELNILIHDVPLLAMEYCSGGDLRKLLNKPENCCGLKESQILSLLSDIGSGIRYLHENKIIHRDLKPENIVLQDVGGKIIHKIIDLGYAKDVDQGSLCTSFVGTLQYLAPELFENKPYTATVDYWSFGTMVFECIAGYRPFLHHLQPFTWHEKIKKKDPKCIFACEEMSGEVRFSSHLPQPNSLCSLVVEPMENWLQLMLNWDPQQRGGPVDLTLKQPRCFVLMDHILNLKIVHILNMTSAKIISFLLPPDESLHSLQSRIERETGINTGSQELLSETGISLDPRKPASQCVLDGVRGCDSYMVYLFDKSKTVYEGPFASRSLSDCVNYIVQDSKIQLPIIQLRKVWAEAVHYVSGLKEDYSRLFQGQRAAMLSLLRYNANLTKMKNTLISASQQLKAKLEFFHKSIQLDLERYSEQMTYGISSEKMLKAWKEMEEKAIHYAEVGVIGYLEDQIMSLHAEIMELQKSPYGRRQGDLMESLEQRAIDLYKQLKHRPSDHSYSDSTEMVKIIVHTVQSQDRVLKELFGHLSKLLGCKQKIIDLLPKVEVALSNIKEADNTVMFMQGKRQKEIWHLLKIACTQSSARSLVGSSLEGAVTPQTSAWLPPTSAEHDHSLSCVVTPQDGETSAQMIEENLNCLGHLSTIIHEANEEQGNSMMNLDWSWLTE
Protocol: as §1, §2, §3, §4

[3] = non-italicised figure: DELFIA assay
[4] = DELFIA assay (first line of an example)

| Ki [1, 3] [nM] | Ki [2, 3] [nM] | Ki [1, 4] [nM] | Ki [2, 4] [nM] | SMILES |
| --- | --- | --- | --- | --- |
| 126 | 14 |  |  | Nc1n[nH]c2ccc(-c3ccnc(NC(=O)Nc4cccc(F)c4)c3)cc12 [Example 51, 1-(4-(3-Amino-1H-indazol-5-yl)pyridine-2-yl)-3-(3-fluorophenyl)urea] |
| 159 | 76 |  |  | Nc1n[nH]c2ccc(-c3ccnc(NC(=O)C4CC4)c3)cc12 [Example 33, N-[4-(3-Amino-1H-indazol-5-yl)pyridin-2-yl]cyclopropanecarboxamide] |
| 380 | 14 |  |  | CC1(C#Cc2cc(-c3ccnc(N)c3)cc3c(N)n[nH]c23)COC1 [Example 141, 5-(2-Aminopyridin-4-yl)-7-((3-methyloxetan-3-yl)ethynyl)-1H-indazol-3-amine] |
|  |  | 500 | 24 | Nc1n[nH]c2c(C#CC3CCOCC3)cc(-c3ccnc(NC4COC4)c3)cc12 [Example 288, 5-(2-(Oxetan-3-ylamino)pyridin-4-yl)-7-((tetrahydro-2H-pyran-4-yl)ethynyl)-1H-indazol-3-amine] |
| 93 | 4 |  |  | Nc1n[nH]c2c(Cl)cc(-c3ccnc4[nH]ccc34)cc12 [Example 4, 7-Chloro-5-(1H-pyrrolo[2,3-b]pyridin-4-yl)-1H-indazol-3-amine] |
| 545 | 14 |  |  | Nc1cccc(-c2cc(-c3ccnc(N)c3)cc3c(N)n[nH]c23)c1 [Example 107, 7-(3-Aminophenyl)-5-(2-aminopyridin-4-yl)-1H-indazol-3-amine] |
|  |  | 322 | 57 | CC(C)(C)C#Cc1cc(-c2ccnc3[nH]c(C4CC4)cc23)cc2c(N)n[nH]c12 [Example 294, 5-(2-Cyclopropyl-1H-pyrrolo[2,3-b]pyridin-4-v)-7-(3,3-dimethylbut-1-yn-1-Vl)-1H-indazol-3-amine] |
| 503 | 21 |  |  | NC(=O)c1cccc(NC(=O)Nc2cc(-c3ccc4[nH]nc(N)c4c3)ccn2)c1 [Example 55, 3-(3-(4-(3-Amino-1H-indazol-5-yl)pyridin-2-yl)ureido)benzamide] |
|  |  | 8660 | 421 | CC(C)(C)C#Cc1cc(-c2ccnc(NC#N)c2)cc2c(N)n[nH]c12 [Example 309, N-(4-(3-Amino-7-(3,3-dimethylbut-1-yn-1-yl)-1H-indazol-5-yl)pyridin-2-yl)cyanamide] |
|  | 24800 |  |  | Nc1nccc(-c2ccc3[nH]nc(N)c3c2)c1CCCCCO [Example 103, 5-(2-Amino-4-(3-amino-1H-indazol-5-yl)pyridin-3-yl)pentan-1-ol] |
|  |  | 81 | 16 | Nc1n[nH]c2c(C#CCCOc3ccccc3)cc(-c3ccnc4[nH]ccc34)cc12 [Example 216, 7-(4-Phenoxybut-1-yn-1-yl)-5-(1H-pyrrolo[2,3-b]pyridin-4-yl)-1H-indazol-3-amine] |
|  |  | 836 | 54 | Cc1coc(Nc2cc(-c3cc(C#CC(C)(C)C)c4[nH]nc(N)c4c3)ccn2)n1 [Example 315, N-(4-(3-Amino-7-(3,3-dimethylbut-1-yn-1-yl)-1H-indazol-5-yl)pyridin-2-yl)-4-methyloxazol-2-amine] |
| 251 | 49 |  |  | CCCNc1cc(-c2ccc3[nH]nc(N)c3c2)ccn1 [Example 13, 5-(2-(Propylamino)pyridin-4-yl)-1H-indazol-3-amine] |
| 838 | 65 |  |  | CC(C)CCNc1cc(-c2ccc3[nH]nc(N)c3c2)ccn1 [Example 16, 5-(2-(Isopentylamino)pyridin-4-yl)-1H-indazol-3-amine] |
| 7610 | 128 |  |  | CC(C)(C)C#Cc1cc(-c2ccnc(NCCN)c2)cc2c(N)n[nH]c12 [Example 161, N^1-(4-(3-Amino-7-(3,3-dimethylbut-1-yn-1-yl)-1H-indazol-5-yl)pyridin-2-yl)ethane-1,2-diamine] |
|  | 19 |  |  | CC1(C#Cc2cc(-c3ccnc(NC4CC4)c3)cc3c(N)n[nH]c23)COC1 [Example 176, 5-(2-(Cyclopropylamino)pyridine-4-yl)-7-((3-methyloxetan-3-yl)ethynyl)-1H-indazol-3-amine] |
|  | 22 |  |  | CC(=O)Nc1cc(-c2cc(C#Cc3ccccc3)c3[nH]nc(N)c3c2)ccn1 [Example 178, N-(4-(3-Amino-7-(phenylethynyl)-1H-indazol-5-yl)pyridin-2-yl)acetamide] |
|  |  |  | 21800 | CC(=O)Nc1cc(-c2cc(C#CC(C)(C)C)c3[nH]nc(N)c3c2)cc(F)n1 [Example 195, N-(4-(3-amino-7-(3,3-dimethylbut-1-yn-1-yl)-1H-indazol-5-yl)-6-fluoropyridin-2-yl)acetamide] |
|  | 931 |  |  | CC(C)(C)C#Cc1cc(-c2cc(N)nc(N)c2)cc2c(N)n[nH]c12 [Example 151, 4-(3-Amino-7-(3,3-dimethylbut-1-yn-1-yl)-1H-indazol-5-yl)pyridine-2,6-diamine] |
|  | 573 |  |  | CC(C)(C)C#Cc1cc(-c2cc(N)nc(F)c2)cc2c(N)n[nH]c12 [Example 150, 5-(2-Amino-6-fluoropyridin-4-yl)-7-(3,3-dimethylbut-1-yn-1-yl)-1H-indazol-3-amine] |
|  |  |  | 5520 | CC(C)(C)C#Cc1cc(-c2ccnc(NS(C)(=O)=O)c2)cc2c(N)n[nH]c12 [Example 193, N-(4-(3-Amino-7-(3,3-dimethylbut-1-yn-1-yl)-1H-indazol-5-yl)pyridine-2-yl)methanesulfonamide] |
|  | 517 |  |  | CC(C)(C)C#Cc1cc(-c2ccnc(N)n2)cc2c(N)n[nH]c12 [Example 143, 5-(2-Aminopyrimidin-4-yl)-7-(3,3-dimethylbut-1-yn-1-yl)-1H-indazol-3-amine] |
|  |  |  | 13 | CC(C)(C)C#Cc1cc(-c2ccnc3[nH]c(CN4CCOCC4)cc23)cc2c(N)n[nH]c12 [Example 279, 7-(3,3-Dimethylbut-1-yn-1-yl)-5-(2-(morpholinomethyl)-1H-pyrrolo[2,3-b]pyridin-4-yl)-1H-indazol-3-amine] |
|  | 8980 |  |  | Nc1nccc(-c2ccc3[nH]nc(N)c3c2)c1CCC1(O)CCCCC1 [Example 102, 1-(2-(2-Amino-4-(3-amino-1H-indazol-5-yl)pyridin-3-yl)ethyl)cyclohexan-1-ol] |
|  | 5580 |  |  | Nc1nccc(-c2ccc3[nH]nc(N)c3c2)c1CCCCO [Example 101, 4-(2-Amino-4-(3-amino-1H-indazol-5-yl)pyridin-3-yl)butan-1-ol] |
